Test results taken from ChEMBL document CHEMBL1201862, “PubChem BioAssay data set” (2004).
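Assay format: 96-well plates, 48-hour exposure. The concentration for 50% growth inhibition is given as GI50.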 Calls of active or inactive are those of the source. Cut-off read from the data, not from the text of the source: active = GI50 up to about 1.1 µM and inactive = higher.

Legend:
Assay in all cases: NCI-60 cell line screen, 48 h
OVCAR-8 = system: OVCAR-8
ACHN = system: ACHN
EKVX = system: EKVX
HOP-62 = system: HOP-62
SK-MEL-2 = system: SK-MEL-2
HCC 2998 = system: HCC 2998
DMS-273 = system: DMS-273
SF-539 = system: SF-539
RPMI-8226 = system: RPMI-8226
K562 = system: K562
RXF 393 = system: RXF 393
MOLT-4 = system: MOLT-4
HT-29 = system: HT-29
786-0 = system: 786-0
UACC-62 = system: UACC-62
OVCAR-4 = system: OVCAR-4
OVCAR-3 = system: OVCAR-3

Measured: GI50

C=C1c2ccccc2N(S(=O)(=O)c2ccc(C)cc2)C12CCCCC2
inactive: OVCAR-8 > 100 µM | ACHN 57.4 µM | EKVX > 100 µM | HOP-62 > 100 µM | SK-MEL-2 52.6 µM | HCC 2998 > 100 µM | DMS-273 45 µM | SF-539 > 100 µM | RPMI-8226 24.4 µM | K562 29 µM | RXF 393 45.6 µM | MOLT-4 30.4 µM | HT-29 52.4 µM | 786-0 > 100 µM | UACC-62 62.2 µM | OVCAR-4 53.1 µM | OVCAR-3 77.6 µM

O=C(O)c1cc2ccc(Cl)cc2c(O)c1C1=CCCCC1
inactive: OVCAR-8 40.4 µM | ACHN 65 µM | EKVX 43.4 µM | HOP-62 33.7 µM | SK-MEL-2 19.9 µM | HCC 2998 > 100 µM | DMS-273 20 µM | SF-539 36.6 µM | RPMI-8226 34.6 µM | K562 33.1 µM | RXF 393 36.5 µM | MOLT-4 36.4 µM | HT-29 46.1 µM | 786-0 52.8 µM | UACC-62 24.5 µM | OVCAR-4 23.2 µM | OVCAR-3 33.5 µM

COc1ccc(-c2cc(C(=O)Nc3cccc(C(F)(F)F)c3)nc(S)n2)cc1
inactive: OVCAR-8 > 100 µM | ACHN > 100 µM | EKVX > 100 µM | HOP-62 > 100 µM | SK-MEL-2 > 100 µM | HCC 2998 > 100 µM | DMS-273 > 100 µM | SF-539 > 100 µM | RPMI-8226 > 100 µM | K562 > 100 µM | RXF 393 > 100 µM | MOLT-4 > 100 µM | HT-29 > 100 µM | 786-0 > 100 µM | UACC-62 > 100 µM | OVCAR-4 > 100 µM | OVCAR-3 > 100 µM
